In brackets after ≈: the same amount, converted by molar mass.
Legend:
[1] = tested on: Pseudomonas aeruginosa; experiment: Compound was evaluated for in vitro antibacterial activity against gram negative organism Pseudomonas aeruginosa strains ATCC 27853; type: functional
[2] = tested on: Pseudomonas aeruginosa; experiment: Compound was evaluated for in vitro antibacterial activity against gram negative organism Pseudomonas aeruginosa strain DRCC 131; type: functional
[3] = tested on: Staphylococcus aureus; experiment: Compound was evaluated for in vitro antibacterial activity against gram positive organism Staphylococcus aureus strain ATCC 6538P; type: functional
[4] = tested on: Enterococcus faecalis; experiment: Compound was evaluated for in vitro antibacterial activity against gram positive organism Streptococcus faecalis strain ATCC 51299; type: functional
[5] = tested on: Pseudomonas aeruginosa; experiment: Compound was evaluated for in vitro antibacterial activity against gram negative organism Pseudomonas aeruginosa strain DRCC 137; type: functional
[6] = tested on: Staphylococcus aureus; experiment: Compound was evaluated for in vitro antibacterial activity against gram positive organism Staphylococcus aureus strain ATCC 29213; type: functional
[7] = tested on: Pseudomonas aeruginosa; experiment: Compound was evaluated for in vitro antibacterial activity against gram negative organism Pseudomonas aeruginosa strain MTCC 1688; type: functional
[8] = tested on: Escherichia coli; experiment: Compound was evaluated for in vitro antibacterial activity against gram negative organism Escherichia coli strain DRCC 134; type: functional
[9] = tested on: Klebsiella pneumoniae; experiment: Compound was evaluated for in vitro antibacterial activity against gram negative organism Klebsiella pneumoniae strain DRCC 132; type: functional
[10] = tested on: Staphylococcus epidermidis; experiment: Compound was evaluated for in vitro antibacterial activity against gram positive organism Staphylococcus epidermidis strain ATCC 12228; type: functional
[11] = tested on: Klebsiella pneumoniae; experiment: Compound was evaluated for in vitro antibacterial activity against gram negative organism Klebsiella pneumoniae strain ATCC 10031; type: functional
[12] = tested on: Escherichia coli; experiment: Compound was evaluated for in vitro antibacterial activity against gram negative organism Escherichia coli strain ATCC 35218; type: functional
[13] = tested on: Pseudomonas fluorescens; experiment: Compound was evaluated for in vitro antibacterial activity against gram negative organism Pseudomonas fluorescence strain DRCC 008; type: functional
[14] = tested on: Pseudomonas aeruginosa; experiment: Compound was evaluated for in vitro antibacterial activity against gram negative organism Pseudomonas aeruginosa strain DRCC 135; type: functional
[15] = tested on: Escherichia coli; experiment: Compound was evaluated for in vitro antibacterial activity against gram negative organism Escherichia coli strain ATCC 25922; type: functional
[16] = tested on: Salmonella typhi; experiment: Compound was evaluated for in vitro antibacterial activity against gram negative organism Salmonella typhi strain MTCC 531; type: functional, Salmonella enterica subsp. enterica serovar Typhi; details: Salmonella enterica
[17] = tested on: Escherichia coli; experiment: Compound was evaluated for in vitro antibacterial activity against gram negative organism Escherichia coli strain DRCC 091; type: functional
[18] = tested on: Enterococcus faecalis; experiment: Compound was evaluated for in vitro antibacterial activity against gram positive organism Streptococcus faecalis strain ATCC 49384; type: functional
[19] = tested on: Enterococcus faecalis; experiment: Compound was evaluated for in vitro antibacterial activity against gram positive organism Streptococcus faecalis strain ATCC 29212; type: functional
[20] = tested on: Salmonella enterica subsp. enterica serovar Abony; experiment: Compound was evaluated for in vitro antibacterial activity against gram negative organism Salmonella abony strain NCIM 2257; type: functional
[21] = tested on: Staphylococcus aureus; experiment: Compound was evaluated for in vitro antibacterial activity against gram positive organism Staphylococcus aureus strain ATCC 33591; type: functional
[22] = tested on: Streptococcus pyogenes; experiment: Compound was evaluated for in vitro antibacterial activity against gram positive organism Streptococcus pyogenes strain DRCC 092; type: functional
[23] = tested on: Escherichia coli; experiment: Compound was evaluated for in vitro antibacterial activity against gram negative organism Escherichia coli strain DRCC 133; type: functional
[24] = tested on: Klebsiella pneumoniae; experiment: Compound was evaluated for in vitro antibacterial activity against gram negative organism Klebsiella pneumoniae strain DRCC 136; type: functional
[25] = tested on: Staphylococcus aureus; experiment: Compound was evaluated for in vitro antibacterial activity against gram positive organism Staphylococcus aureus strain MTCC 737; type: functional
[26] = tested on: Staphylococcus aureus; experiment: Compound was evaluated for in vitro antibacterial activity against gram positive organism Staphylococcus aureus strain ATCC 33592; type: functional
[27] = tested on: Salmonella typhimurium; experiment: Compound was evaluated for in vitro antibacterial activity against gram negative organism Salmonella Typhimurium MTCC 98; type: functional, Salmonella enterica subsp. enterica serovar Typhimurium; details: Salmonella enterica
[28] = tested on: Enterococcus faecalis; experiment: Compound was evaluated for in vitro antibacterial activity against gram positive organism Streptococcus faecalis strainATCC 49384; type: functional; details: ATCC 49384
[29] = tested on: Staphylococcus aureus; experiment: Compound was evaluated for in vitro antibacterial activity against gram positive organism Staphylococcus aureus strainATCC 6538P; type: functional; details: ATCC 6538P
[30] = tested on: Pseudomonas aeruginosa; experiment: Compound was evaluated for in vitro antibacterial activity against gram negative organism Pseudomonas aeruginosa strainsATCC 27853; type: functional; details: ATCC 27853
[31] = tested on: Pseudomonas fluorescens; experiment: Compound was evaluated for in vitro antibacterial activity against gram negative organism Pseudomonas fluorescence strain NCIMB 10586; type: functional

Compound | MIC [2] [µg/mL] | MIC [3] [µg/mL] | MIC [6] [µg/mL] | MIC [7] [µg/mL] | MIC [8] [µg/mL] | MIC [9] [µg/mL] | MIC [10] [µg/mL] | MIC [11] [µg/mL] | MIC [13] [µg/mL] | MIC [14] [µg/mL] | MIC [16] [µg/mL] | MIC [17] [µg/mL] | MIC [19] [µg/mL] | MIC [20] [µg/mL] | MIC [21] [µg/mL] | MIC [23] [µg/mL] | MIC [24] [µg/mL] | MIC [25] [µg/mL] | MIC [26] [µg/mL] | MIC [27] [µg/mL] | further results
CN[C@@H]1CN(c2cc3c(cc2F)c(=O)c(C(=O)O)cn3-c2ccccc2F)C[C@H]1NC.O=C(O)C(F)(F)F | 0.5 | 0.5 | 4 | 4 | > 8 | > 8 | 2 | 0.06 | > 8 | > 8 | 4 | > 8 | 4 | 1 | 1 | > 8 | 2 | 4 | 4 | 1 | MIC [1]: 4 µg/mL; MIC [4]: 2 µg/mL; MIC [5]: > 8 µg/mL; MIC [12]: 0.5 µg/mL; MIC [15]: 1 µg/mL; MIC [18]: 4 µg/mL; MIC [22]: 0.03 µg/mL
N[C@@H]1CN(c2cc3c(cc2F)c(=O)c(C(=O)O)cn3C2CC2)C[C@H]1N.O=C(O)C(F)(F)F | > 8 | – | 2 | 0.5 | > 8 | > 8 | 2 | 0.125 | 1 | > 8 | 1 | > 8 | 2 | 2 | 2 | > 8 | 4 | 2 | 8 | > 8 | MIC [4]: 1 µg/mL; MIC [5]: > 8 µg/mL; MIC [28]: 4 µg/mL; MIC [29]: 2 µg/mL; MIC [12]: 1 µg/mL; MIC [15]: 0.25 µg/mL; MIC [22]: 1 µg/mL; MIC [30]: 4 µg/mL
CCn1cc(C(=O)O)c(=O)c2cc(F)c(N3C[C@@H](N)[C@H](N)C3)c(F)c21.Cl | > 8 | 2 | 2 | 1 | > 8 | > 8 | 2 | 0.125 | 4 | > 8 | 1 | > 8 | 4 | 8 | 2 | > 8 | > 8 | 2 | 4 | 0.5 | MIC [1]: > 8 µg/mL; MIC [4]: 2 µg/mL; MIC [5]: > 8 µg/mL; MIC [12]: 1 µg/mL; MIC [15]: 0.5 µg/mL; MIC [18]: 4 µg/mL; MIC [22]: 2 µg/mL
CN[C@@H]1CN(c2c(F)c(N)c3c(=O)c(C(=O)O)cn(C4CC4)c3c2F)C[C@H]1NC.Cl | 1 | 0.5 | 0.25 | 0.5 | > 8 | > 8 | 1 | 0.06 | > 8 | > 8 | 0.25 | > 8 | 1 | 0.25 | 0.25 | > 8 | 0.5 | 0.25 | 0.25 | 0.125 | MIC [1]: 4 µg/mL; MIC [4]: 0.25 µg/mL; MIC [5]: > 8 µg/mL; MIC [12]: 0.5 µg/mL; MIC [15]: 0.06 µg/mL; MIC [18]: 1 µg/mL; MIC [22]: 0.03 µg/mL
CN[C@@H]1CN(c2cc3c(cc2F)c(=O)c(C(=O)O)cn3C2CC2)C[C@H]1NC.Cl | 2 | 0.5 | 1 | 2 | > 8 | > 8 | 0.5 | 0.06 | > 8 | > 8 | 0.5 | > 8 | 2 | 1 | 1 | > 8 | 0.5 | 1 | 0.5 | 0.5 | MIC [1]: 4 µg/mL; MIC [4]: 0.25 µg/mL; MIC [5]: > 8 µg/mL; MIC [12]: 0.25 µg/mL; MIC [15]: 0.125 µg/mL; MIC [18]: 4 µg/mL; MIC [22]: 0.06 µg/mL
CN[C@@H]1CN(c2cc3c(cc2F)c(=O)c(C(=O)O)cn3-c2ccc(F)cc2)C[C@H]1NC.Cl | 0.25 | 0.5 | 0.5 | 2 | > 8 | > 8 | 1 | 0.125 | 2 | > 8 | 0.25 | > 8 | 0.5 | 0.5 | 1 | > 8 | 0.5 | 0.5 | 0.25 | 1 | MIC [1]: 4 µg/mL; MIC [4]: 0.25 µg/mL; MIC [5]: 1 µg/mL; MIC [12]: 1 µg/mL; MIC [15]: 0.5 µg/mL; MIC [18]: 0.5 µg/mL; MIC [22]: 1 µg/mL
Cl.N[C@@H]1CN(c2cc3c(cc2F)c(=O)c(C(=O)O)cn3-c2ccc(F)cc2)C[C@H]1N | 1 | 1 | 1 | 2 | > 8 | > 8 | 1 | 1 | 2 | > 8 | > 8 | > 8 | 2 | 4 | 1 | > 8 | > 8 | 1 | 1 | 1 | MIC [1]: 8 µg/mL; MIC [4]: 1 µg/mL; MIC [5]: > 8 µg/mL; MIC [12]: 1 µg/mL; MIC [15]: 1 µg/mL; MIC [18]: 1 µg/mL; MIC [22]: 0.5 µg/mL
CCn1cc(C(=O)O)c(=O)c2cc(F)c(N3C[C@@H](NC)[C@H](NC)C3)c(F)c21.Cl | > 8 | 4 | 4 | 1 | > 8 | > 8 | 2 | 0.5 | 4 | > 8 | 1 | > 8 | 4 | 8 | 1 | > 8 | 8 | 4 | 4 | 1 | MIC [1]: 8 µg/mL; MIC [4]: 2 µg/mL; MIC [5]: 8 µg/mL; MIC [12]: 1 µg/mL; MIC [15]: 0.5 µg/mL; MIC [18]: 8 µg/mL; MIC [22]: 4 µg/mL
O=C(O)c1cn(C2CC2)c2cc(N3CCNCC3)c(F)cc2c1=O [CIPROFLOXACIN] | > 8 | 0.5 (≈ 1.51 µM) | 2 (≈ 6.04 µM) | 0.06 (≈ 0.181 µM) | > 8 | > 8 | 1 (≈ 3.02 µM) | 0.03 (≈ 0.0905 µM) | 0.5 (≈ 1.51 µM) | > 8 | 0.25 (≈ 0.754 µM) | > 8 | 0.125 (≈ 0.377 µM) | 1 (≈ 3.02 µM) | 0.25 (≈ 0.754 µM) | > 8 | 1 (≈ 3.02 µM) | 0.25 (≈ 0.754 µM) | 4 (≈ 12.1 µM) | 0.25 (≈ 0.754 µM) | MIC [18]: 4 µg/mL (≈ 12.1 µM); MIC [31]: > 8 µg/mL
CCn1cc(C(=O)O)c(=O)c2cc(F)c(N3CCNCC3)cc21 [NORFLOXACIN] | > 8 | 1 (≈ 3.13 µM) | 4 (≈ 12.5 µM) | 0.125 (≈ 0.391 µM) | > 8 | > 8 | 1 (≈ 3.13 µM) | 0.03 (≈ 0.0939 µM) | 0.25 (≈ 0.783 µM) | > 8 | 0.25 (≈ 0.783 µM) | > 8 | 1 (≈ 3.13 µM) | 0.5 (≈ 1.57 µM) | 1 (≈ 3.13 µM) | > 8 | 0.5 (≈ 1.57 µM) | 4 (≈ 12.5 µM) | 4 (≈ 12.5 µM) | 0.5 (≈ 1.57 µM) | MIC [1]: 4 µg/mL (≈ 12.5 µM); MIC [4]: 2 µg/mL (≈ 6.26 µM); MIC [5]: 2 µg/mL (≈ 6.26 µM); MIC [12]: 0.125 µg/mL (≈ 0.391 µM); MIC [15]: 0.03 µg/mL (≈ 0.0939 µM); MIC [18]: 4 µg/mL (≈ 12.5 µM); MIC [22]: 2 µg/mL (≈ 6.26 µM); MIC [31]: > 8 µg/mL

— ChEMBL document CHEMBL1131559, “Novel quinolone derivatives as potent antibacterials” (1998)
